Data reported in article PMC8536124 (International Journal of Molecular Sciences, 2021).

Assays:
SK-OV-3 = tested on: SK-OV-3; design: method as in earlier work; settings: cited from earlier work
MDA-MB-435 = tested on: MDA-MB-435; design: method as in earlier work; settings: cited from earlier work
SNB-75 = tested on: SNB-75; design: method as in earlier work; settings: cited from earlier work
MCF7 = tested on: MCF7; design: method as in earlier work; settings: cited from earlier work
RXF 393 = tested on: RXF 393; design: method as in earlier work; settings: cited from earlier work
OVCAR-4 = tested on: OVCAR-4; design: method as in earlier work; settings: cited from earlier work
UACC-62 = tested on: UACC-62; design: method as in earlier work; settings: cited from earlier work
NCI/ADR-RES = tested on: NCI/ADR-RES; design: method as in earlier work; settings: cited from earlier work
ACHN = tested on: ACHN; design: method as in earlier work; settings: cited from earlier work
COLO 205 = tested on: COLO 205; design: method as in earlier work; settings: cited from earlier work
HT29 = tested on: HT29; design: method as in earlier work; settings: cited from earlier work
A498 = tested on: A498; design: method as in earlier work; settings: cited from earlier work
NCI-H522 = tested on: NCI-H522; design: method as in earlier work; settings: cited from earlier work
UO-31 = tested on: UO-31; design: method as in earlier work; settings: cited from earlier work
TK-10 = tested on: TK-10; design: method as in earlier work; settings: cited from earlier work
Ovarian cancer = tested on: Ovarian cancer; design: method as in earlier work; settings: Ovarian cancer subpanel; read-out: GI50 MG_MID; cited from earlier work
M14 = tested on: M14; design: method as in earlier work; settings: cited from earlier work
HCT-15 = tested on: HCT-15; design: method as in earlier work; settings: cited from earlier work
[1] = tested on: NCI-60 cancer cell line panel; design: method as in earlier work; settings: mean graph midpoint, full panel; read-out: GI50 MG_MID60; cited from earlier work
PC-3 = tested on: PC-3; design: method as in earlier work; settings: cited from earlier work
HCC-2998 = tested on: HCC-2998; design: method as in earlier work; settings: cited from earlier work
MALME-3M = tested on: MALME-3M; design: method as in earlier work; settings: cited from earlier work
OVCAR-5 = tested on: OVCAR-5; design: method as in earlier work; settings: cited from earlier work
A549/ATCC = tested on: A549/ATCC; design: method as in earlier work; settings: cited from earlier work
LOX IMVI = tested on: LOX IMVI; design: method as in earlier work; settings: cited from earlier work
CAKI-1 = tested on: CAKI-1; design: method as in earlier work; settings: cited from earlier work
Melanoma = tested on: Melanoma; design: method as in earlier work; settings: Melanoma subpanel; read-out: GI50 MG_MID; cited from earlier work
HOP-62 = tested on: HOP-62; design: method as in earlier work; settings: cited from earlier work
786-0 = tested on: 786-0; design: method as in earlier work; settings: cited from earlier work
DU-145 = tested on: DU-145; design: method as in earlier work; settings: cited from earlier work
MDA-MB-31/ATCC = tested on: MDA-MB-31/ATCC; design: method as in earlier work; settings: cited from earlier work
Breast cancer = tested on: Breast cancer; design: method as in earlier work; settings: Breast cancer subpanel; read-out: GI50 MG_MID; cited from earlier work
OVCAR-8 = tested on: OVCAR-8; design: method as in earlier work; settings: cited from earlier work
HOP-92 = tested on: HOP-92; design: method as in earlier work; settings: cited from earlier work
NCI-H226 = tested on: NCI-H226; design: method as in earlier work; settings: cited from earlier work
HS 578T = tested on: HS 578T; design: method as in earlier work; settings: cited from earlier work
SW-620 = tested on: SW-620; design: method as in earlier work; settings: cited from earlier work
Renal Cancer = tested on: Renal Cancer; design: method as in earlier work; settings: Renal cancer subpanel; read-out: GI50 MG_MID; cited from earlier work
NCI-H460 = tested on: NCI-H460; design: method as in earlier work; settings: cited from earlier work
SK-MEL-2 = tested on: SK-MEL-2; design: method as in earlier work; settings: cited from earlier work
SNB-19 = tested on: SNB-19; design: method as in earlier work; settings: cited from earlier work
OVCAR-3 = tested on: OVCAR-3; design: method as in earlier work; settings: cited from earlier work
SF-268 = tested on: SF-268; design: method as in earlier work; settings: cited from earlier work
CNS cancer = tested on: CNS cancer; design: method as in earlier work; settings: CNS cancer subpanel; read-out: GI50 MG_MID; cited from earlier work
SN12C = tested on: SN12C; design: method as in earlier work; settings: cited from earlier work
NSC lung cancer = tested on: NSC lung cancer; design: method as in earlier work; settings: NSC lung cancer subpanel; read-out: GI50 MG_MID; cited from earlier work
Prostate cancer = tested on: Prostate cancer; design: method as in earlier work; settings: Prostate cancer subpanel; read-out: GI50 MG_MID; cited from earlier work
U251 = tested on: U251; design: method as in earlier work; settings: cited from earlier work
T-47D = tested on: T-47D; design: method as in earlier work; settings: cited from earlier work
SF-539 = tested on: SF-539; design: method as in earlier work; settings: cited from earlier work
NCI-H23 = tested on: NCI-H23; design: method as in earlier work; settings: cited from earlier work
SK-MEL-5 = tested on: SK-MEL-5; design: method as in earlier work; settings: cited from earlier work
BT-549 = tested on: BT-549; design: method as in earlier work; settings: cited from earlier work
IGROV1 = tested on: IGROV1; design: method as in earlier work; settings: cited from earlier work
UACC-257 = tested on: UACC-257; design: method as in earlier work; settings: cited from earlier work
SK-MEL-28 = tested on: SK-MEL-28; design: method as in earlier work; settings: cited from earlier work
HCT-116 = tested on: HCT-116; design: method as in earlier work; settings: cited from earlier work
Colon Cancer = tested on: Colon Cancer; design: method as in earlier work; settings: Colon Cancer subpanel; read-out: GI50 MG_MID; cited from earlier work
KM12 = tested on: KM12; design: method as in earlier work; settings: cited from earlier work
SF-295 = tested on: SF-295; design: method as in earlier work; settings: cited from earlier work
MDA-MB-468 = tested on: MDA-MB-468; design: method as in earlier work; settings: cited from earlier work
EKVX = tested on: EKVX; design: method as in earlier work; settings: cited from earlier work
chorioallantoic membrane = settings: in vivo
Excerpt: In this assay, the irritation potential may range from 0 to 21, with 0 being non-irritant and 21 being the most irritant. […] The irritation score was established according to Luepke scale: 0–0.9 indicates non-irritant, 1–4.9 indicates weakly irritant, 5–8.9 indicates moderately irritant, while 9–21 means strongly irritant (Table 6) [88, 89].
The in vivo Hen’s Egg Chorioallantoic Membrane Test (HET-CAM) assay determines a potential irritant effect on the vascular plexus of the chorioallantoic membrane [94]. The HET-CAM method was carried out following ICCVAM recommendations published in November 2016 in Appendix G and adapted to our conditions [88, 95, 96]. Thus, a volume of 300 µL of control or test solution was applied and the modifications produced at the CAM level were monitored by means of stereomicroscopy (Discovery 8 Stereomicroscope, Zeiss), registering significant images (Axio CAM 105 color, Zeiss), before application after 5 min of contact with the samples. All images were processed using Zeiss ZEN software, Gimp 2.8, and ImageJ software.
Negative control was represented by distilled water and solvent control DMSO 0.5%, and positive control by sodium lauryl sulphate (SLS) 0.5% in distillate water. The test substances were tested in concentrations of 1 µM.
Finally, the following reactions were: hemorrhage—H (blood vessel bleeding), vascular lysis—L (disintegration of blood vessels), coagulation—C (intra- or extra-vascular protein denaturizing). A variety of analysis methods may be used to assess irritancy potential of test substances. One analysis method that has been used extensively is an irritation score (IS). The formula used to generate an IS value is:(1) IS=5×301−Sec H/300+7×300−Sec L/300+9×301−Sec C/300 where: H = hemorrhage; L = vessel lysis; C = coagulation; hemorrhage time (Sec H) = onset of hemorrhage reactions on CAM (in seconds); lysis time (Sec L) = onset of vessel lysis on CAM (in seconds); coagulation time (Sec C) = onset of coagulation formation on CAM (in seconds). Means values are obtained. […] The IS values range on a scale between 0 and 21.

Structure (SMILES): O=c1[nH]cc(F)c(=O)[nH]1 [Compound 5-FU, 5-fluorouracil]
- GI50 (SK-OV-3): 21800 nM
- GI50 (MDA-MB-435): 70 nM
- GI50 (SNB-75): 78700 nM
- GI50 (MCF7): 70 nM
- GI50 (RXF 393): 2610 nM
- GI50 (OVCAR-4): 4430 nM
- GI50 (UACC-62): 520 nM
- GI50 (NCI/ADR-RES): 310 nM
- GI50 (ACHN): 270 nM
- GI50 (COLO 205): 150 nM
- GI50 (HT29): 170 nM
- GI50 (A498): 350 nM
- GI50 (NCI-H522): 7270 nM
- GI50 (UO-31): 1420 nM
- GI50 (TK-10): 1120 nM
- GI50 (Ovarian cancer): 5770 nM
- GI50 (M14): 980 nM
- GI50 (HCT-15): 110 nM
- GI50 [1]: 6970 nM
- GI50 (PC-3): 2360 nM
- GI50 (HCC-2998): 50 nM
- GI50 (MALME-3M): 50 nM
- GI50 (OVCAR-5): 10900 nM
- GI50 (A549/ATCC): 180 nM
- GI50 (LOX IMVI): 240 nM
- GI50 (CAKI-1): 70 nM
- GI50 (Melanoma): 7070 nM
- GI50 (HOP-62): 390 nM
- GI50 (786-0): 720 nM
- GI50 (DU-145): 360 nM
- GI50 (MDA-MB-31/ATCC): 6600 nM
- GI50 (Breast cancer): 7030 nM
- GI50 (OVCAR-8): 1740 nM
- GI50 (HOP-92): 77900 nM
- GI50 (NCI-H226): 54700 nM
- GI50 (HS 578T): 9770 nM
- GI50 (SW-620): 920 nM
- GI50 (Renal Cancer): 880 nM
- GI50 (NCI-H460): 50 nM
- GI50 (SK-MEL-2): 56700 nM
- GI50 (SNB-19): 3810 nM
- GI50 (OVCAR-3): 10 nM
- GI50 (SF-268): 1620 nM
- GI50 (CNS cancer): 17000 nM
- GI50 (SN12C): 490 nM
- GI50 (NSC lung cancer): 20100 nM
- GI50 (Prostate cancer): 1360 nM
- GI50 (U251): 920 nM
- GI50 (T-47D): 8120 nM
- GI50 (SF-539): 60 nM
- GI50 (NCI-H23): 330 nM
- GI50 (SK-MEL-5): 460 nM
- GI50 (BT-549): 10600 nM
- GI50 (IGROV1): 1220 nM
- GI50 (UACC-257): 3550 nM
- GI50 (SK-MEL-28): 1030 nM
- GI50 (HCT-116): 220 nM
- GI50 (Colon Cancer): 260 nM
- GI50 (KM12): 210 nM

Structure (SMILES): COc1cccc2c1C(=O)c1c(O)c3c(c(O)c1C2=O)C[C@@](O)(C(=O)CO)C[C@@H]3O[C@H]1C[C@H](N)[C@H](O)[C@H](C)O1 [DRB, doxorubicin]
- GI50 (SK-OV-3): 220 nM
- GI50 (MDA-MB-435): 250 nM
- GI50 (SNB-75): 70 nM
- GI50 (MCF7): 30 nM
- GI50 (RXF 393): 100 nM
- GI50 (OVCAR-4): 370 nM
- GI50 (UACC-62): 120 nM
- GI50 (NCI/ADR-RES): 7160 nM
- GI50 (ACHN): 80 nM
- GI50 (COLO 205): 180 nM
- GI50 (SF-295): 100 nM
- GI50 (HT29): 120 nM
- GI50 (A498): 100 nM
- GI50 (NCI-H522): 30 nM
- GI50 (MDA-MB-468): 50 nM
- GI50 (UO-31): 490 nM
- GI50 (EKVX): 410 nM
- GI50 (Ovarian cancer): 1260 nM
- GI50 (M14): 180 nM
- GI50 (HCT-15): 6460 nM
- GI50 [1]: 380 nM
- GI50 (PC-3): 320 nM
- GI50 (HCC-2998): 260 nM
- GI50 (MALME-3M): 120 nM
- GI50 (OVCAR-5): 410 nM
- GI50 (A549/ATCC): 60 nM
- GI50 (LOX IMVI): 70 nM
- GI50 (CAKI-1): 950 nM
- GI50 (Melanoma): 150 nM
- GI50 (HOP-62): 70 nM
- GI50 (786-0): 130 nM
- GI50 (DU-145): 110 nM
- GI50 (MDA-MB-31/ATCC): 510 nM
- GI50 (Breast cancer): 190 nM
- GI50 (OVCAR-8): 100 nM
- GI50 (HOP-92): 100 nM
- GI50 (NCI-H226): 50 nM
- GI50 (HS 578T): 330 nM
- GI50 (SW-620): 90 nM
- GI50 (Renal Cancer): 270 nM
- GI50 (NCI-H460): 20 nM
- GI50 (SK-MEL-2): 170 nM
- GI50 (SNB-19): 40 nM
- GI50 (OVCAR-3): 390 nM
- GI50 (SF-268): 100 nM
- GI50 (CNS cancer): 80 nM
- GI50 (SN12C): 70 nM
- GI50 (NSC lung cancer): 110 nM
- GI50 (Prostate cancer): 210 nM
- GI50 (U251): 40 nM
- GI50 (T-47D): 60 nM
- GI50 (SF-539): 120 nM
- GI50 (NCI-H23): 150 nM
- GI50 (SK-MEL-5): 80 nM
- GI50 (BT-549): 230 nM
- GI50 (IGROV1): 170 nM
- GI50 (UACC-257): 140 nM
- GI50 (SK-MEL-28): 210 nM
- GI50 (HCT-116): 80 nM
- GI50 (KM12): 270 nM

Structure (SMILES): CCCCCCCCCCCCOS(=O)(=O)[O-].[Na+] [SLS 0.5%, sodium laurylsulphate]
- Type of Effect (chorioallantoic membrane): Strong irritant
